Assay results published in patent US20240132484A1, “BROAD SPECTRUM ANTIVIRAL COMPOUNDS TARGETING THE SKI COMPLEX” (priority 2020, published 2024).
Values joined by “and” are separate entries in the source; they are usually repeats but may differ in a detail not shown here. Identical values can stand only once. Like-named read-outs stand apart in the source and are kept apart here.

System: SARS2
Type: cell-based, SARS-CoV-2
Details: for Percentage Infection Relative to Appropriate DMSO Control / Infection Data: Percentage Infection Relative to Appropriate DMSO Control / Percentage Infection Relative to Appropriate DMSO Control, Mean / Infection Data, Percentage Infection Relative to Appropriate DMSO Control: avg background subtraction; for Infection Data: Percentage Infection Relative to Appropriate DMSO Control: replicate wells; for Infection Data: Average, Mean: average of Exp 1-3 (SMW475, SMW477, SMW478), n 9; for Infection Data, Average, Mean percentage infection relative to DMSO control: Average of Exp 1 (SMW491) and Exp 2 (SMW492); for Percentage Infection Relative to Appropriate DMSO Control, Mean: Average of Exp 1 and Exp 2, n=4; for Infection Data, Percentage Infection Relative to Appropriate DMSO Control: single well

With `COc1ccc(CNCCc2ccccc2F)c(OCC(O)CN2CCN(C)CC2)c1` (racemic) [UMB18G] the “Percentage Infection Relative to Appropriate DMSO Control” value (25 uM, Exp 1 (SMW454), single wells) was 54.89% and 58.50% and 60.94%, the “Infection Data: Percentage Infection Relative to Appropriate DMSO Control” value (25 uM, Exp 1 (SMW475)) was 0.07% and −0.35% and −1.40% and the “Infection Data: Percentage Infection Relative to Appropriate DMSO Control” value (25 uM, Exp 2 (SMW477)) was 1.11% and 0.67% and 1.76%. The “Infection Data: Percentage Infection Relative to Appropriate DMSO Control” value (25 uM, Exp 3 (SMW478)) was 3.99% and 4.14% and 2.78%, the “Infection Data: Average, Mean” value (25 uM) was 1.42% and the “Percentage Infection Relative to Appropriate DMSO Control” value (50 uM, Exp 1 (SMW454), single wells) was 28.95% and 40.45% and 40.98%. The “Infection Data: Percentage Infection Relative to Appropriate DMSO Control” value (50 uM, Exp 1 (SMW475)) was −0.48% and −1.48% and 0.34%, the “Infection Data: Percentage Infection Relative to Appropriate DMSO Control” value (50 uM, Exp 2 (SMW477)) was 1.36% and 0.07% and 1.60% and the “Infection Data: Percentage Infection Relative to Appropriate DMSO Control” value (50 uM, Exp 3 (SMW478)) was 0.69% and 2.33% and 1.45%. For the same molecule, the “Infection Data: Average, Mean” value (50 uM) was 0.65%, the “Infection Data, Average, Mean percentage infection relative to DMSO control” value (n=4, 1 uM) was 65.84% and 39.37% and 49.93% and 57.24% and the “Infection Data, Average, Mean percentage infection relative to DMSO control” value (n=4, 5 uM) was 54.32% and 40.70% and 42.82% and 28.04%. For the same molecule, the “Infection Data, Average, Mean percentage infection relative to DMSO control” value (n=4, 10 uM) was 8.53% and 5.08% and 5.96% and 7.33%, the “Infection Data, Average, Mean percentage infection relative to DMSO control” value (n=4, 25 uM) was 11.20% and 7.36% and 4.36% and 11.41% and the “Infection Data, Average, Mean percentage infection relative to DMSO control” value (n=4, 50 uM) was 8.04% and 0.83% and 7.39% and 10.06%. The “Infection Data, Average, Mean” value (Average of Exp 1-3, n 9, 1 uM) was 79.70%, the “Infection Data, Average, Mean” value (Average of Exp 1-3, n 9, 5 uM) was 44.64% and the “Infection Data, Average, Mean” value (Average of Exp 1-3, n 9, 10 uM) was 52.11%. For the same molecule, the “Infection Data, Average, Mean” value (Average of Exp 1-3, n 9, 25 uM) was 19.49%, the “Infection Data, Average, Mean” value (Average of Exp 1-3, n 9, 50 uM) was 11.46% and the “Percentage Infection Relative to Appropriate DMSO Control, Mean” value (1 uM) was 59.34% and 41.11%. For the same molecule, the “Percentage Infection Relative to Appropriate DMSO Control, Mean” value (5 uM) was 26.29% and 13.69%, the “Percentage Infection Relative to Appropriate DMSO Control, Mean” value (10 uM) was 6.07% and 4.47% and the “Percentage Infection Relative to Appropriate DMSO Control, Mean” value (25 uM) was 3.40% and 3.46%. The “Percentage Infection Relative to Appropriate DMSO Control, Mean” value (50 uM) was 2.64% and 2.63%, the “Infection Data, Percentage Infection Relative to Appropriate DMSO Control” value (Exp 1 (SMW491), 10 uM) was 5.19% and 1.05% and 0.23% and 2.20% and 5.21% and 4.17% and 3.28% and 4.40% and the “Percentage Infection Relative to Appropriate DMSO Control” value (Exp 1 (SMW506), 10 uM, single wells) was 6.99% and 10.55% and 9.19% and 3.42%. The “Percentage Infection Relative to Appropriate DMSO Control” value (Exp 1 (SMW506), 25 uM, single wells) was 4.49% and 2.30% and 4.05% and 3.63%, the “Percentage Infection Relative to Appropriate DMSO Control” value (Exp 1 (SMW506), 50 uM, single wells) was 4.22% and 4.54% and 5.07% and 2.41% and the “Percentage Infection Relative to Appropriate DMSO Control” value (Exp 2 (SMW466), 10 uM) was 10.03% and 6.17% and 9.36%. For the same molecule, the “Percentage Infection Relative to Appropriate DMSO Control” value (Exp 2 (SMW466), 25 uM) was −0.69% and −1.02% and −1.54%, the “Percentage Infection Relative to Appropriate DMSO Control” value (Exp 2 (SMW466), 50 uM) was −0.97% and −1.80% and 1.96% and the “Infection Data, Percentage Infection Relative to Appropriate DMSO Control” value (Exp 2 (SMW492), 1 uM) was 87.68% and 68.32% and 72.99% and 69.05% and 75.23% and 75.22% and 50.23% and 54.62%. For the same molecule, the “Infection Data, Percentage Infection Relative to Appropriate DMSO Control” value (Exp 2 (SMW492), 10 uM) was 15.18% and 12.71% and 12.92% and 8.48% and 10.42% and 9.51% and 5.72% and 6.91%, the “Percentage Infection Relative to Appropriate DMSO Control” value (Exp 2 (SMW492), 1 uM, single wells) was 34.50% and 31.39% and 22.69% and 24.33% and the “Percentage Infection Relative to Appropriate DMSO Control” value (Exp 2 (SMW492), 5 uM, single wells) was 5.38% and 4.98% and 4.24% and 4.87%. The “Percentage Infection Relative to Appropriate DMSO Control” value (Exp 2 (SMW492), 10 uM, single wells) was 3.43% and 3.30% and 3.52% and 1.74%, the “Percentage Infection Relative to Appropriate DMSO Control” value (Exp 2 (SMW492), 25 uM, single wells) was 4.70% and 2.08% and 5.51% and 0.65% and the “Percentage Infection Relative to Appropriate DMSO Control” value (Exp 2 (SMW492), 50 uM, single wells) was 1.27% and 0.52% and 1.57% and 1.49%. For the same molecule, the “Percentage Infection Relative to Appropriate DMSO Control” value (Exp 3 (SMW480), 1 uM) was 54.21% and 61.59% and 57.93%, the “Percentage Infection Relative to Appropriate DMSO Control” value (Exp 3 (SMW480), 5 uM) was 19.54% and 24.35% and 30.13% and the “Percentage Infection Relative to Appropriate DMSO Control” value (Exp 3 (SMW480), 10 uM) was 53.71% and 59.47% and 34.88%. The “Percentage Infection Relative to Appropriate DMSO Control” value (Exp 3 (SMW480), 25 uM) was −0.67% and 2.60% and 2.37%, the “Percentage Infection Relative to Appropriate DMSO Control” value (Exp 3 (SMW480), 50 uM) was −1.69% and −2.08% and −2.66% and the “Percentage Inhibition Average 1 μM” value (SARS2, 1 μM) was 40.42%. The “Screening data (Relative infection to DMSO controls) Average 1 μM” value (SARS2, 1 μM, 100=DMSO control) was 59.58, the “Percentage Inhibition Average 5 μM” value (SARS2, 5 μM) was 68.79% and the “Screening data (Relative infection to DMSO controls) Average 5 μM” value (SARS2, 5 μM, 100=DMSO control) was 31.21. The “Percentage Inhibition Average 10 μM” value (SARS2, 10 μM) was 90.05%, the “Screening data (Relative infection to DMSO controls) Average 10 μM” value (SARS2, 10 μM, 100=DMSO control) was 9.95 and the “Percentage Inhibition Average 25 μM” value (SARS2, 25 μM) was 93.14%. For the same molecule, the “Screening data (Relative infection to DMSO controls) Average 25 μM” value (SARS2, 25 μM, 100=DMSO control) was 6.86, the “Percentage Inhibition Average 50 μM” value (SARS2, 50 μM) was 94.65% and the “Screening data (Relative infection to DMSO controls) Average 50 μM” value (SARS2, 50 μM, 100=DMSO control) was 5.35. The “Average (relative infection to DMSO over the 5 tested concentrations)” value (SARS2, average over 1 to 50 uM, 100=DMSO control) was 22.59.
